Experimental data reported in US20090258888A1, “Pyrimidine Derivatives” (Bayer Pharmaceuticals Corporation, priority 2005, published 2009).
Counter-ions that a name gives are not always drawn. Like-named read-outs stand apart in the source and are kept apart here.

Test system: HCT116 cells
Test: HCT116 cytotoxic activity assay
Assay type: cell-based
Details: Homo sapiens, HCT-116, 72 h with compound, Alamar Blue readout
[1] = read-out: IC50 in the HCT116 cytotoxic activity assay
[2] = read-out: IC50 in the HCT116 cytotoxic activity assay (upper bound of the class >500 nM)

Description: Human tumor cells, e.g., HCT116 cells, are seeded in a 96-well plate at 3.0×10^3 cells/well and grown in 100 μl of RPMI complete media (Invitrogen Corporation, Grand Island, N.Y.) containing 10% fetal bovine serum (Hyclone, Logan, Utah) and 10 mM HEPES and at 37° C. for 16 h in an incubator with 5% CO2. To each well, 50 μl of additional growth media containing 20 μM to 60 nM concentrations of compound with 0.2% DMSO is added. Cells are grown for another 72 h at 37° C. 20 μl of Alamar Blue (Trek Diagnostic Systems, Inc., Cleveland, Ohio) reagent is added to each well and incubated for 4 h at 37° C. Plates are read in a SpectraMax Gemini (Molecular Devices, CA) with 544 nm excitation and 590 nm emission wavelength. IC50 values are determined by linear regression analysis of log drug concentration versus percent inhibition.

| Structure (SMILES) | IC50 [1] [nM] | IC50 [2] [nM] |
| --- | --- | --- |
| NCCCc1cc(Nc2ccc(Oc3ccnc(C(F)(F)F)c3)cc2)nc(N)n1 [Example 14, 6-(3-aminopropyl)-N^4-(4-{[2-(trifluoromethyl)pyridin-4-yl]oxy}phenyl)pyrimidine-2,4-diamine hydrochloride] | > 500 | ≤ 10000 |
| Nc1nc(CCc2cccc(O)c2)cc(Nc2ccc(Oc3ccnc(C(F)(F)F)c3)cc2)n1 [Example 35, 3-(2-{2-amino-6-[(4-{[2-(trifluoromethyl)pyridin-4-yl]oxy}phenyl)-amino]pyrimidin-4-yl}ethyl)phenol] | > 500 | ≤ 10000 |
| Nc1nc(/C=C/CCO)cc(Nc2ccc(Oc3ccnc(C(F)(F)F)c3)cc2)n1 [Example 8, (3E)-4-[2-amino-6-[(4-{[2-(trifluoromethyl)pyridin-4-yl]oxy}phenyl)amino]pyrimidin-4-yl]but-3-en-1-ol] | ≤ 500 |  |
| Nc1nc(C#Cc2ccc(F)cc2)cc(Nc2ccc(Oc3ccnc(C(F)(F)F)c3)cc2)n1 [Example 22, 6-[(4-fluorophenyl)ethynyl]-N^4-(4-{[2-(trifluoromethyl)pyridin-4-yl]oxy}phenyl)pyrimidine-2,4-diamine] | ≤ 500 |  |
| Nc1nc(/C=C/c2ccc(F)cc2)cc(Nc2ccc(Oc3ccnc(C(F)(F)F)c3)cc2)n1 [Example 5, 6-[(E)-2-(4-fluorophenyl)vinyl]-N^4-(4-{[2-(trifluoromethyl)pyridin-4-yl]oxy}phenyl)pyrimidine-2,4-diamine] | ≤ 500 |  |
| COc1cccc(CCc2cc(Nc3ccc(Oc4ccnc(C(F)(F)F)c4)cc3)nc(N)n2)c1 [Example 31, 6-[2-(3-methoxyphenyl)ethyl]-N4-(4-{[2-(trifluoromethyl)pyridin-4-yl]oxy}phenyl)pyrimidine-2,4-diamine] | ≤ 500 |  |
| Nc1ccc(/C=C/c2cc(Nc3ccc(Oc4ccnc(C(F)(F)F)c4)cc3)nc(N)n2)cc1 [Example 39A, 6-[(E)-2-(4-aminophenyl)vinyl]-N^4-(4-{[2-(trifluoromethyl)pyridin-4-yl]oxy}phenyl)pyrimidine-2,4-diamine trifluoroacetate] | > 500 | ≤ 10000 |
| Nc1nc(CCc2ccc(F)cc2)cc(Nc2ccc(Oc3ccnc(C(F)(F)F)c3)cc2)n1 [Example 29, 6-[2-(4-fluorophenyl)ethyl]-N^4-(4-{[2-(trifluoromethyl)pyridin-4-yl]oxy}phenyl)pyrimidine-2,4-diamine] | ≤ 500 |  |
| Nc1nc(CCCCO)cc(Nc2ccc(Oc3ccnc(C(F)(F)F)c3)cc2)n1 [Example 15, 4-{2-amino-6-[(4-{[2-(trifluoromethyl)pyridin-4-yl]oxy}phenyl)amino]pyrimidin-4-yl}butan-1-ol] | ≤ 500 |  |
| N#Cc1cc(Oc2ccc(Nc3cc(/C=C/c4ccc(F)cc4)nc(N)n3)cc2)ccn1 [Example 3, 4-[4-({2-amino-6-[(E)-2-(4-fluorophenyl)vinyl]pyrimidin-4-yl}amino)phenoxy]pyridine-2-carbonitrile] | ≤ 500 |  |
| Nc1nc(CCC(O)CO)cc(Nc2ccc(Oc3ccnc(C(F)(F)F)c3)cc2)n1 (stereo not drawn) [Example 17, 4-{2-amino-6-[(4-{[2-(trifluoromethyl)pyridin-4-yl]oxy}phenyl)amino]pyrimidin-4-yl}butane-1,2-diol] | > 500 | ≤ 10000 |
| CC(O)c1cc(Nc2ccc(Oc3ccnc(C(F)(F)F)c3)cc2)nc(N)n1 (stereo not drawn) [Example 2, 1-{2-amino-6-[(4-{[2-(trifluoromethyl)pyridin-4-yl]ox-}phenyl)amino]pyrimidin-4-yl}ethanol] | > 500 | ≤ 10000 |
| Nc1ccc(/C=C\c2cc(Nc3ccc(Oc4ccnc(C(F)(F)F)c4)cc3)nc(N)n2)cc1 [Example 39B, 6-[(Z)-2-(4-aminophenyl)vinyl]-N^4-(4-{[2-(trifluoromethyl)pyridin-4-yl]oxy}phenyl)pyrimidine-2,4-diamine trifluoroacetate] | > 500 | ≤ 10000 |
| C=C(OCC)c1cc(Nc2ccc(Oc3ccnc(C(F)(F)F)c3)cc2)nc(N)n1 [Example 1, 6-(1-ethoxyvinyl)-N^4-(4-{[2-(trifluoromethyl)pyridin-4-yl]oxy}phenyl)pyrimidine-2,4-diamine] | > 500 | ≤ 10000 |
| Nc1nc(CCCO)cc(Nc2ccc(Oc3ccnc(C(F)(F)F)c3)cc2)n1 [Example 16, 4-{2-amino-6-[(4-{[2-(trifluoromethyl)pyridin-4-yl]oxy}phenyl)amino]pyrimidin-4-yl}propan-1-ol] | ≤ 500 |  |
| Cc1cc(Oc2ccc(Nc3cc(/C=C/c4ccccc4)nc(N)n3)cc2)ccn1 [Example 41, N^4-{4-[(2-methylpyridin-4-yl)oxy]phenyl}-6-[(E)-2-phenylvinyl]-pyrimidine-2,4-diamine] | ≤ 500 |  |
| Nc1ccc(CCc2cc(Nc3ccc(Oc4ccnc(C(F)(F)F)c4)cc3)nc(N)n2)cc1 [Example 40, 6-[2-(4-aminophenyl)ethyl]-N^4-(4-{[2-(trifluoromethyl)pyridin-4-yl]oxy}phenyl)pyrimidine-2,4-diamine trifluoroacetate] | ≤ 500 |  |
